Test results as given in patent US11547957B2, “Method of maintaining narrow residence time distributions in continuous flow systems” (EMD Millipore Corporation, priority 2017, dated 2023).

Test system: Phi6 bacteriophage virus
Assay: Static detergent-based virus inactivation, infectivity by plaque assay
Format: cell-based
Conditions: mAb 15 mg/mL, 22-25° C.; for Time to Complete Inactivation: Phi6
Method: The purpose of this study was to examine detergent-based virus inactivation kinetics. In this representative experiment, two different concentrations (0.1% and 1.0% v/v) of a detergent, Triton X-100 were used to inactivate a bacteriophage virus, Phi6. The objective was to determine the exposure time required for complete inactivation.
A monoclonal antibody was purified by standard Protein A chromatography and prepared at a concentration of 15 mg/mL. The virus spike was added and vortexed to ensure a well-mixed system. The Phi6 target spike level was 1×10^8 pfu/mL. Detergent was added to reach the desired concentrations of 0.1% and 1.0% v/v. At various time points, a sample was removed and quenched by adding it to buffer at a 1:1000 dilution ratio. The tubes were vortexed after the detergent addition. These experiments were carried out at room temperature, 22-25° C. Control samples at the initial and final time points were also analyzed. The control samples were diluted similarly to the actual samples using the background buffer.

Triton X-100
≤ 1 min: Time to Complete Inactivation (0.1% v/v Triton X-100, listed as Triton X100) | Time to Complete Inactivation (1.0% v/v Triton X-100, listed as Triton X100)
≥5.2: Phi6 LRV (0.1% v/v Triton X-100, inactivation time 1 min) | Phi6 LRV (0.1% v/v Triton X-100, inactivation time 2 min) | Phi6 LRV (0.1% v/v Triton X-100, inactivation time 3 min) | Phi6 LRV (0.1% v/v Triton X-100, inactivation time 4 min) | Phi6 LRV (0.1% v/v Triton X-100, inactivation time 5 min) | Phi6 LRV (0.1% v/v Triton X-100, inactivation time 15 min) | Phi6 LRV (0.1% v/v Triton X-100, inactivation time 30 min)
≤1 min: Time to Complete Inactivation (0.1% v/v Triton X-100) | Time to Complete Inactivation (1.0% v/v Triton X-100)
≥6.2: Phi6 LRV (1.0% v/v Triton X-100, inactivation time 1 min) | Phi6 LRV (1.0% v/v Triton X-100, inactivation time 2 min) | Phi6 LRV (1.0% v/v Triton X-100, inactivation time 3 min) | Phi6 LRV (1.0% v/v Triton X-100, inactivation time 4 min) | Phi6 LRV (1.0% v/v Triton X-100, inactivation time 5 min) | Phi6 LRV (1.0% v/v Triton X-100, inactivation time 15 min) | Phi6 LRV (1.0% v/v Triton X-100, inactivation time 30 min)
